According to patent US20240150424A1, “DIRECTED CHEMICAL CONJUGATE OF GLUCAGON-LIKE PEPTIDE-2 MUTANT, AND USE THEREOF” (PEG-BIO BIOPHARM CO.,LTD.(CHONGQING), priority 2021, published 2024):
Starred links: 1 amine or outer side, 2 acyl side, 3 side chain; linkers in the order of their positions; H or OH if unused. Non-standard residues stand in square brackets, D forms with d. Residues, ends and D or L forms follow the SMILES beside them. Groups on a side chain read outwards from the residue. No end group written: not given here. *: point of attachment. C18 diacid = O=C(O)CCCCCCCCCCCCCCCCC(=O)*; γGlu = O=C(O)[C@H](CCC(=O)[*:2])N[*:1]; AEEA = NCCOCCOCC(=O)O; Aib = CC(C)(N)C(=O)O

Legend:
[1] = Pharmacokinetic study in rats (ELISA); type: in vivo, SD rats
Procedure: 10 adult SD rats weighing 200-300 g were equally divided into 2 groups, 5 rats each group. PF01 and PF04 were administered subcutaneously at a single dose of 3 mg/Kg, respectively. Serum samples of all rats were collected before administration and 8 h, 24 h, 48 h, 72 h and 96 h after administration, and plasma concentrations were determined by ELISA.

[2] = Pharmacokinetic study in Cynomolgus macaques (LC-MS/MS, NCA); type: in vivo
Procedure: 4 adult Cynomolgus macaques, half males and half females, were used. PF01 was administered by subcutaneous injection at a single dose of 0.05 mg/Kg. Blood samples were collected before administration and 4 h, 8 h, 12 h, 24 h, 48 h, 72 h, 96 h, 120 h, 192 h and 288 h after administration. The concentrations of PF01 in the samples were determined by LC-MS/MS. The plasma concentration data were analyzed using WinNonlin, a pharmacokinetic data analysis software. […] The t1/2, Cmax, Tmax, AUC, Cl and Vd were calculated using a non-compartmental model (NCA).

[3] = test system: small intestine hyperplasia in minor mice; assay: Test on promoting small intestinal hyperplasia in minor Kunming mice; type: in vivo
Procedure: Forty minor Kunming mice weighing 10 to 20 g were equally divided into […], 10 mice each group. The control group was subcutaneously administered with the placebo once a day for 9 days, the Ted group was subcutaneously administered at 1 mg/Kg once a day for 9 days, and the PF01 group and the PF04 group were subcutaneously administered at 3 mg/Kg once every three days for a total of 3 times. All experimental animals were weighed before administration. On the 10th day after administration, the body weight was weighed, blood was collected, and small intestine length and weight were determined.

[4] = test system: 5-FU-induced diarrhea and intestinal mucosa injury model; assay: Diarrhea and intestinal mucosa injury model caused by 5-FU in rats; type: in vivo, SD rats; conditions: for Number of animals with diarrhea (denominator): 10 rats each group
Procedure: Forty adult SD rats weighing 200 to 300 g were equally divided into 4 groups, 10 rats each group. A Model group was subcutaneously administered with the placebo once a day for 9 days, a Ted group was subcutaneously administered at 1 mg/Kg once a day for 9 days, and a PF01 group and a PF04 group were subcutaneously administered at 3 mg/Kg once every three days for a total of 3 times. All rats were intraperitoneally injected with 5-FU at 50 mg/Kg once a day on the 4th day to the 6th day. Diarrhea and body weight changes in rats were recorded every day after the first administration of 5-FU. On the 10th day, body weight was weighed, blood was collected, and jejunum was taken for case sections. Diarrhea was identified based on scores, with 0 indicating no diarrhea, 1 indicating mild diarrhea with feces adhering to the anus, 2 indicating moderate diarrhea with feces adhering to the hind legs and tail, 3 indicating severe diarrhea with feces adhering to the front legs and abdomen, and 4 indicating death. In Table 6, the numerator represents the diarrhea score, and the denominator represents the number of animals with diarrhea.

[5] = cited from earlier work
[6] = cited from earlier work; remark: listed apart in the source
[7] = target: T1, GLP-2R (Homo sapiens, UniProt O95838); assay: In vitro activity (cAMP) assay of glucagon-like peptide-2 mutants in HEK-293-GLP-2R cells; type: cell-based; conditions: for in vitro activities compared with natural human glucagon-like peptide-2: summary statement
T1 construct: expressed in transfected cells; host or cells: HEK-293 cells, transfected and screened by Chongqing Paijin Biotechnology Co. Ltd. The receptor gene was constructed by Shanghai Shengbo Biomedical Technology Co. Ltd
T1 sequence (O95838 1-553): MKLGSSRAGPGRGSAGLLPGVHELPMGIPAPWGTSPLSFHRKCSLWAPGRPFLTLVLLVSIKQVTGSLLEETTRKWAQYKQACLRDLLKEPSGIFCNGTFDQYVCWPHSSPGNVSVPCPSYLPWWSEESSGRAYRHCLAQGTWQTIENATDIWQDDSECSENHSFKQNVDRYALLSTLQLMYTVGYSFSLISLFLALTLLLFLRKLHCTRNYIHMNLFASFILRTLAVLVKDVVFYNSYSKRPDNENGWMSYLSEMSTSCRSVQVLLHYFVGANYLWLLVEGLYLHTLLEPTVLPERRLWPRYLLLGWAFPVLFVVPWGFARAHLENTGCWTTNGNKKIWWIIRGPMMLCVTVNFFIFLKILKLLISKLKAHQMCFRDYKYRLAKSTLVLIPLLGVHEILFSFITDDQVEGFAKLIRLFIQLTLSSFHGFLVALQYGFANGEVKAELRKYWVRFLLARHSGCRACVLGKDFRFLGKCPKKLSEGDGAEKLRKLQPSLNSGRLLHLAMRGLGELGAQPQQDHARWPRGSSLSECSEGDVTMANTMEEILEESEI
Procedure: HEK-293-GLP-2R cells (HEK-293 cells were purchased from National Collection of Authenticated Cell Cultures, GLP-2R receptor gene sequence was recombinantly constructed by Shanghai Shengbo Biomedical Technology Co. Ltd., and HEK-293-GLP-2R cells were obtained by transfection and screening by Chongqing Paijin Biotechnology Co. Ltd.) were used to determine the in vitro activities of glucagon-like peptide-2 mutants. […] The cells were incubated at 37° C., 5% CO2 for 15 minutes, and then added with a cell lysis buffer. The cell lysates were extracted, and the OD value of cAMP was determined using a cAMP assay kit (RD company).

[8] = cynomolgus monkey, in vivo, Cynomolgus macaques, sc single dose of 0.05 mg/Kg
[9] = 10th day, Ted 1 mg/Kg sc once a day for 9 days, PF01/PF04 3 mg/Kg sc once every three days, 3 times
[10] = 24 h after the administration of 5-FU
[11] = 48 h after the administration of 5-FU
[12] = 72 h after the administration of 5-FU
[13] = 96 h after the administration of 5-FU

Molecule: CC[C@H](C)[C@H](NC(=O)[C@H](Cc1ccccc1)NC(=O)[C@H](CC(=O)O)NC(=O)[C@H](CCCNC(=N)N)NC(=O)[C@H](C)NC(=O)[C@H](C)NC(=O)[C@H](CC(C)C)NC(=O)[C@H](CC(N)=O)NC(=O)[C@H](CC(=O)O)NC(=O)[C@H](CC(C)C)NC(=O)[C@@H](NC(=O)[C@@H](NC(=O)[C@H](CC(N)=O)NC(=O)[C@H](CCSC)NC(=O)[C@H](CCC(=O)O)NC(=O)[C@H](CC(=O)O)NC(=O)[C@H](CO)NC(=O)[C@H](Cc1ccccc1)NC(=O)[C@H](CO)NC(=O)CNC(=O)[C@H](CC(=O)O)NC(=O)CNC(=O)[C@@H](N)Cc1c[nH]cn1)[C@@H](C)O)[C@@H](C)CC)C(=O)N[C@@H](CC(N)=O)C(=O)N[C@@H](Cc1c[nH]c2ccccc12)C(=O)N[C@@H](CC(C)C)C(=O)N[C@H](C(=O)N[C@@H](CCC(N)=O)C(=O)N[C@H](C(=O)N[C@@H](CCCNC(=N)N)C(=O)N[C@H](C(=O)N[C@H](C(=O)N[C@@H](CC(=O)O)C(=O)NCC(=O)NCC(=O)NCC(=O)NCC(=O)N[C@@H](CO)C(=O)N[C@@H](CCCCNC(=O)COCCOCCNC(=O)COCCOCCNC(=O)CC[C@H](NC(=O)CCCCCCCCCCCCCCCCC(=O)O)C(=O)O)C(=O)O)[C@@H](C)O)[C@@H](C)CC)[C@@H](C)O)[C@@H](C)CC [PF01] (H-HGDGSFSDEMNTILDNLAARDFINWLIQTRITDGGGGSK([AEEA-AEEA-γGlu-C18 diacid])-OH)
- Cmax ([1]; rat, in vivo, rats, sc single dose of 3 mg/Kg): 67500 ng/mL
- half-life ([1]; rat, in vivo, rats, sc single dose of 3 mg/Kg, read-out: T1/2 (converted)): 20.3 h
- half-life ([1]; rat, in vivo, summary statement in description, read-out: in vivo half-life in rats (converted)): 21 h
- Tmax ([1]; rats, sc single dose of 3 mg/Kg): basically consistent with that of PF04
- in vivo half-life, times longer than that of the natural hGLP-2 ([2]; based on T1/2 in Cynomolgus macaques): approximately 100 times
- AUC [2, 8]: 21700 ng·h/mL
- Cmax [2, 8]: 459 ng/mL
- Tmax [2, 8]: 12 h
- half-life ([2]; cynomolgus monkey, in vivo, Cynomolgus macaques, sc single dose of 0.05 mg/Kg, read-out: T1/2 (average) (converted)): 30.9 h
- half-life ([2]; cynomolgus monkey, in vivo, summary statement in description, read-out: in vivo half-life in cynomolgus monkeys (converted)): 30 h

Molecule: CC[C@H](C)[C@H](NC(=O)[C@H](Cc1ccccc1)NC(=O)[C@H](CC(=O)O)NC(=O)[C@H](CCCNC(=N)N)NC(=O)[C@H](C)NC(=O)[C@H](C)NC(=O)[C@H](CC(C)C)NC(=O)[C@H](CC(N)=O)NC(=O)[C@H](CC(=O)O)NC(=O)[C@H](CC(C)C)NC(=O)[C@@H](NC(=O)[C@@H](NC(=O)[C@H](CC(N)=O)NC(=O)[C@H](CCSC)NC(=O)[C@H](CCC(=O)O)NC(=O)[C@H](CC(=O)O)NC(=O)[C@H](CO)NC(=O)[C@H](Cc1ccccc1)NC(=O)[C@H](CO)NC(=O)CNC(=O)[C@H](CC(=O)O)NC(=O)CNC(=O)[C@@H](N)Cc1c[nH]cn1)[C@@H](C)O)[C@@H](C)CC)C(=O)N[C@@H](CC(N)=O)C(=O)N[C@@H](Cc1c[nH]c2ccccc12)C(=O)N[C@@H](CC(C)C)C(=O)N[C@H](C(=O)N[C@@H](CCC(N)=O)C(=O)N[C@H](C(=O)N[C@@H](CCCCN)C(=O)N[C@H](C(=O)N[C@H](C(=O)N[C@@H](CC(=O)O)C(=O)O)[C@@H](C)O)[C@@H](C)CC)[C@@H](C)O)[C@@H](C)CC [Teduglutide]
- Body weight of mice at the end of the experiment [3, 9]: 18.06 ± 0.49 g
- Serum citrulline content [3, 9]: 14.47 µg/mL
- Small intestine length [3, 9]: 37.4 cm
- Small intestine weight [3, 9]: 1.75 g
- Body weight of mice before administration ([3]; baseline, before administration): 13.32 ± 0.49 g
- Comparison of groups in mice body weight, serum citrulline, small intestine length and small intestine weight ([3]; text summary of Table 4): superior to the control group
- Diarrhea score (numerator) [4, 10]: 0/0
- Number of animals with diarrhea (denominator) [4, 10]: 0/0
- Diarrhea score (numerator) [4, 11]: 4/4
- Number of animals with diarrhea (denominator) [4, 11]: 4/4
- Diarrhea score (numerator) [4, 12]: 4
- Number of animals with diarrhea (denominator) [4, 12]: 3
- Diarrhea score (numerator) [4, 13]: 3/3
- Number of animals with diarrhea (denominator) [4, 13]: 3/3
- Rank of citrulline (CIT) content between groups ([4]; FIG. 7, before chemotherapy, 48 h and 144 h after chemotherapy): citrulline content in the PF01 group>that in the PF04 group>that in the Ted group>that in the Model group
- Case sections of jejunum: height of villi and number of crypt cells, rank of groups ([4]; FIG. 8, 10th day): the PF01 group>the PF04 group>the Ted group>the control group
- Serum citrulline content 96 h after the first administration of 5-FU ([4]; Table 5, 96 h): 16.50 µg/mL
- Serum citrulline content 48 h after the administration of 5-FU ([4]; Table 7, 48 h): 2.04 µg/mL
- Serum citrulline content 96 h after the administration of 5-FU ([4]; Table 7, 96 h): 3.53 µg/mL
- Serum citrulline content 144 h after the administration of 5-FU ([4]; Table 7, 144 h): 10.37 µg/mL
- Serum citrulline content before the administration of 5-FU ([4]; Table 7, before 5-FU): 21.74 µg/mL
- Body weight before the first administration of 5-FU ([4]; Ted 1 mg/Kg sc daily 9 days, PF01/PF04 3 mg/Kg sc every three days x3, 5-FU 50 mg/Kg ip day 4-6): 272.46 g
- Body weight 24 h after the first administration of 5-FU ([4]; same regimen, 24 h): 274.36 g
- Body weight 48 h after the first administration of 5-FU ([4]; same regimen, 48 h): 257.94 g
- Body weight 72 h after the first administration of 5-FU ([4]; same regimen, 72 h): 260.95 g
- Body weight 96 h after the first administration of 5-FU ([4]; same regimen, 96 h): 275.43 g
- half-life in vivo in humans [5]: 2 h
- in vivo half-life in rats ([6]; rats): 0.5 h

Molecule: GLP-2(3-33): hydrolyzed, inactive GLP-2(3-33) formed by dipeptidyl peptidase IV (DGSFSDEMNTILDNLAARDFINWLIQTKITD; Glucagon-like peptide 2; UniProt P01275 148-178, looked up, fragment)
- half-life in vivo ([6]; cited reference on catabolism in rats): 0.45 h

Molecule: PT01: glucagon-like peptide-2 mutant, SEQ ID NO: 1: HGDGSFSDEMNTILDNLAARDFINWLIQTRITDGGGGSK
- in vitro activities compared with natural human glucagon-like peptide-2 [7]: consistent with the natural human glucagon-like peptide-2

Molecule: PT02: glucagon-like peptide-2 mutant, SEQ ID NO: 2: HAibDGSFSDEMNTILDNLAARDFINWLIQTRITDGGGGSK (H[Aib]DGSFSDEMNTILDNLAARDFINWLIQTRITDGGGGSK)
- in vitro activities compared with natural human glucagon-like peptide-2 [7]: consistent with the natural human glucagon-like peptide-2
- in vitro cell viability relative to that of Teduglutide ([7]; text summary of Table 3, Teduglutide as a standard): comparable to that of Teduglutide

Molecule: PT03: glucagon-like peptide-2 mutant, SEQ ID NO: 3: HGDGSFSDEMNTILDNLAARDFINWLIQTRITDGGGGSGGGGSK
- in vitro activities compared with natural human glucagon-like peptide-2 [7]: consistent with the natural human glucagon-like peptide-2

Molecule: PT04: glucagon-like peptide-2 mutant, SEQ ID NO: 4: HGDGSFSDEMNTILDNLAARDFINWLIQTHITDGGGGSK
- in vitro activities compared with natural human glucagon-like peptide-2 [7]: consistent with the natural human glucagon-like peptide-2

Molecule: hGLP-2: human glucagon-like peptide-2, SEQ ID NO: 9: HADGSFSDEMNTILDNLAARDFINWLIQTKITD
- half-life in vivo in humans [5]: 0.12 h
